Measured values taken from PubChem BioAssay AID248 (DTP/NCI, 2004).
Where “and” joins values, the source holds several entries; their conditions need not be identical. Identical values can stand only once. Inconclusive results and toxic doses are left out. Rule as the data show it: active = T/C of 150% or more; inactive = T/C below 125%.

Test system: L1210 leukemia ip in BDF1 mice, survival T/C
Assay: NCI In Vivo Anticancer Drug Screen. Data for tumor model L1210 Leukemia (intraperitoneal) in B6D2F1 (BDF1) mice
Details: endpoint: mean survival time, higher = longer survival
Outline: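 In this screen, tumor-bearing mice given compound are compared to those given vehicle, and their survival values are reported as a treated-to-control quotient.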

[1] = dose: 100.0 mg/kg/injection, schedule: Q04DX003 (ip), vehicle: saline with Tween-80
[2] = dose: 200.0 mg/kg/injection, schedule: Q04DX003 (ip), vehicle: saline with Tween-80
[3] = dose: 400.0 mg/kg/injection, schedule: Q04DX003 (ip), vehicle: saline with Tween-80
[4] = dose: 100.0 mg/kg/injection, schedule: Q01DX009 (ip), vehicle: saline with Tween-80
[5] = dose: 200.0 mg/kg/injection, schedule: Q01DX009 (ip), vehicle: saline with Tween-80
[6] = dose: 100.0 mg/kg/injection, schedule: Q01DX001 (ip), vehicle: Klucel (hydroxypropylcellulose) (HPC)
[7] = dose: 100.0 mg/kg/injection, schedule: Q01DX009 (ip), vehicle: Klucel (hydroxypropylcellulose) (HPC)
[8] = dose: 100.0 mg/kg/injection, schedule: Q04DX003 (ip), vehicle: Klucel (hydroxypropylcellulose) (HPC)
[9] = dose: 200.0 mg/kg/injection, schedule: Q01DX001 (ip), vehicle: Klucel (hydroxypropylcellulose) (HPC)
[10] = dose: 200.0 mg/kg/injection, schedule: Q01DX009 (ip), vehicle: Klucel (hydroxypropylcellulose) (HPC)
[11] = dose: 200.0 mg/kg/injection, schedule: Q04DX003 (ip), vehicle: Klucel (hydroxypropylcellulose) (HPC)
[12] = dose: 400.0 mg/kg/injection, schedule: Q01DX001 (ip), vehicle: Klucel (hydroxypropylcellulose) (HPC)
[13] = dose: 400.0 mg/kg/injection, schedule: Q01DX009 (ip), vehicle: Klucel (hydroxypropylcellulose) (HPC)
[14] = dose: 400.0 mg/kg/injection, schedule: Q04DX003 (ip), vehicle: Klucel (hydroxypropylcellulose) (HPC)
[15] = dose: 25.0 mg/kg/injection, schedule: Q01DX009 (ip), vehicle: Klucel (hydroxypropylcellulose) (HPC)
[16] = dose: 50.0 mg/kg/injection, schedule: Q01DX009 (ip), vehicle: Klucel (hydroxypropylcellulose) (HPC)

Measured: T/C

COC1OC2COc3ccccc3OC2C(N=Cc2ccccc2)C1O (stereo not drawn)
inactive: [1] 102 % of control | [2] 102 % of control | [3] 98 % of control

O=C(Cl)c1ccc(N2C(=O)c3ccccc3C2=O)cc1[N+](=O)[O-]
inactive: [4] 98 % of control | [1] 102 % of control | [5] 97 % of control | [2] 98 % of control | dose: 400.0 mg/kg/injection, schedule: Q01DX009 (ip), vehicle: saline with Tween-80 106 % of control | [3] 100 % of control

N#Cc1ccc[n+]([O-])c1
inactive: [1] 100 % of control | [2] 101 % of control | [3] 97 % of control

COc1ccc([N+](=O)[O-])cc1NC(=O)NCc1cccnc1
inactive: [6] 91 % of control | [7] 93 % of control and 91 % of control | dose: 100.0 mg/kg/injection, schedule: Q04DX002 (ip), vehicle: Klucel (hydroxypropylcellulose) (HPC) 87 % of control and 92 % of control | [8] 103 % of control | [9] 93 % of control | [10] 93 % of control and 98 % of control | dose: 200.0 mg/kg/injection, schedule: Q04DX002 (ip), vehicle: Klucel (hydroxypropylcellulose) (HPC) 97 % of control and 87 % of control | [11] 100 % of control | [12] 90 % of control | [13] 93 % of control and 95 % of control | dose: 400.0 mg/kg/injection, schedule: Q04DX002 (ip), vehicle: Klucel (hydroxypropylcellulose) (HPC) 97 % of control and 92 % of control | [14] 101 % of control

O=C(N/N=C/c1ccco1)c1ccccc1O
inactive: dose: 50.0 mg/kg/injection, schedule: Q01DX009 (ip), vehicle: saline with Tween-80 108 % of control | [4] 102 % of control | [5] 97 % of control

C/C=C/CC1(CCC)C(=O)NC(=O)NC1=O
inactive: dose: 75.0 mg/kg/injection, schedule: Q01DX001 (ip), vehicle: saline 100 % of control | dose: 150.0 mg/kg/injection, schedule: Q01DX001 (ip), vehicle: saline 98 % of control | dose: 300.0 mg/kg/injection, schedule: Q01DX001 (ip), vehicle: saline 104 % of control

N#Cc1c(Cl)nsc1Cl
inactive: [7] 97 % of control | [10] 102 % of control

CSc1cnnc2ccccc12
inactive: [15] 110 % of control | [16] 115 % of control

CC1(C)C2CCC([CH2][Hg][Cl])C1C2 (stereo not drawn)
inactive: dose: 6.25 mg/kg/injection, schedule: Q01DX009 (ip), vehicle: saline 93 % of control | dose: 6.25 mg/kg/injection, schedule: Q04DX003 (ip), vehicle: other 103 % of control | dose: 12.5 mg/kg/injection, schedule: Q01DX009 (ip), vehicle: saline 91 % of control | dose: 12.5 mg/kg/injection, schedule: Q04DX003 (ip), vehicle: other 103 % of control | dose: 20.0 mg/kg/injection, schedule: Q01DX001 (ip), vehicle: Klucel (hydroxypropylcellulose) (HPC) 102 % of control | dose: 25.0 mg/kg/injection, schedule: Q01DX009 (ip), vehicle: saline 94 % of control | dose: 25.0 mg/kg/injection, schedule: Q04DX003 (ip), vehicle: other 106 % of control

O=[N+]([O-])c1cccc(S(=O)(=O)NNc2cc(C(F)(F)F)ccc2Cl)c1
inactive: [6] 93 % of control | [8] 92 % of control | [9] 94 % of control | [11] 87 % of control | [12] 98 % of control | [14] 100 % of control

CC1(C)C2CCC1(C)C(N1C(c3ccccc3)C1c1ccccc1)C2 (stereo not drawn)
inactive: [7] 90 % of control | [10] 88 % of control | [13] 90 % of control

O=C(O)/C=C/c1c2ccc(=O)c(O)c-2oc2c(O)c(O)ccc12
inactive: dose: 10.0 mg/kg/injection, schedule: Q04DX003 (ip), vehicle: other 94 % of control | dose: 20.0 mg/kg/injection, schedule: Q04DX003 (ip), vehicle: other 98 % of control | dose: 40.0 mg/kg/injection, schedule: Q04DX003 (ip), vehicle: other 88 % of control | dose: 50.0 mg/kg/injection, schedule: Q04DX003 (ip), vehicle: other 106 % of control | dose: 80.0 mg/kg/injection, schedule: Q04DX003 (ip), vehicle: other 89 % of control | dose: 100.0 mg/kg/injection, schedule: Q04DX003 (ip), vehicle: other 107 % of control

O=C(Nc1ccc(Cl)c(Cl)c1)Nc1ccc(Cl)cc1O
inactive: dose: 100.0 mg/kg/injection, schedule: Q01DX001 (ip), vehicle: carboxymethylcellulose (CMC) 100 % of control | dose: 200.0 mg/kg/injection, schedule: Q01DX001 (ip), vehicle: carboxymethylcellulose (CMC) 96 % of control | dose: 400.0 mg/kg/injection, schedule: Q01DX001 (ip), vehicle: carboxymethylcellulose (CMC) 96 % of control

CC(OC(=O)CCN1CC1)C1CC1 (stereo not drawn)
inactive: dose: 2.5 mg/kg/injection, schedule: Q01DX009 (ip), vehicle: Klucel (hydroxypropylcellulose) (HPC) 103 % of control | dose: 5.0 mg/kg/injection, schedule: Q01DX009 (ip), vehicle: Klucel (hydroxypropylcellulose) (HPC) 102 % of control | dose: 10.0 mg/kg/injection, schedule: Q01DX009 (ip), vehicle: Klucel (hydroxypropylcellulose) (HPC) 100 % of control | dose: 20.0 mg/kg/injection, schedule: Q01DX009 (ip), vehicle: Klucel (hydroxypropylcellulose) (HPC) 101 % of control | dose: 20.0 mg/kg/injection, schedule: Q04DX003 (ip), vehicle: Klucel (hydroxypropylcellulose) (HPC) 103 % of control | dose: 40.0 mg/kg/injection, schedule: Q04DX003 (ip), vehicle: Klucel (hydroxypropylcellulose) (HPC) 93 % of control | dose: 80.0 mg/kg/injection, schedule: Q04DX003 (ip), vehicle: Klucel (hydroxypropylcellulose) (HPC) 101 % of control | [8] 87 % of control

CN(C)/C(=C/c1ccccc1)CS(=O)(=O)N(C)C
inactive: dose: 75.0 mg/kg/injection, schedule: Q01DX001 (ip), vehicle: carboxymethylcellulose (CMC) 106 % of control | dose: 150.0 mg/kg/injection, schedule: Q01DX001 (ip), vehicle: carboxymethylcellulose (CMC) 97 % of control | dose: 300.0 mg/kg/injection, schedule: Q01DX001 (ip), vehicle: carboxymethylcellulose (CMC) 89 % of control

c1ccc(CC2NCCc3c2[nH]c2ccccc32)cc1 (stereo not drawn)
inactive: [15] 104 % of control | dose: 25.0 mg/kg/injection, schedule: Q04DX003 (ip), vehicle: Klucel (hydroxypropylcellulose) (HPC) 92 % of control | [16] 103 % of control | [7] 93 % of control | [8] 89 % of control | [10] 108 % of control | [11] 97 % of control | [14] 97 % of control

CCC(/C=C1\[Se]c2ccc(C)cc2N1CC)=C\c1[se]c2ccc(C)cc2[n+]1CC
inactive: dose: 2.0 mg/kg/injection, schedule: Q01DX001 (ip), vehicle: other 103 % of control | dose: 4.0 mg/kg/injection, schedule: Q01DX001 (ip), vehicle: other 101 % of control

Nc1nc2nc(N=Nc3ccc(S(N)(=O)=O)cc3)[nH]c2c(=O)[nH]1
inactive: [8] 96 % of control | [11] 93 % of control | [14] 99 % of control
